# Assay results from patent US8952024B2, “Herbicidal pyrimidone derivatives” (E I du Pont de Nemours and Company, priority 2009, dated 2015).
# What was measured:
# Format in all cases: in vivo
# [1] = test system: bermudagrass (Cynodon dactylon); assay: Test B pre-/postemergence plant response
# In short: (§1)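 Visual ratings on a 0–100 scale (100 = complete control) were made versus untreated controls 13–15 days after treatment in a greenhouse. Compounds in surfactant-containing non-phytotoxic solvent were applied preemergence to seeds in loam–sand blend or postemergence to 1- to 4-leaf plants (2–18 cm).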
# [2] = test system: galium (catchweed bedstraw, Galium aparine); assay: Test B pre-/postemergence plant response; settings: Preemergence; for Galium plant response rating: 125 g ai/ha
# In short: as §1
# [3] = test system: morningglory (Ipomoea coccinea); assay: Test B pre-/postemergence plant response
# In short: as §1
# [4] = test system: nightshade (eastern black nightshade, Solanum ptycanthum); assay: Test B pre-/postemergence plant response; settings: Preemergence; for Nightshade plant response rating: 125 g ai/ha
# In short: as §1
# [5] = test system: sunflower (common oilseed sunflower, Helianthus annuus); assay: Test B pre-/postemergence plant response; settings: Preemergence; for Sunflower plant response rating: 125 g ai/ha
# In short: as §1
# [6] = test system: canarygrass (Phalaris minor); assay: Test B postemergence plant response; settings: for Canarygrass plant response rating: 250 g ai/ha, scale 0 to 100
# In short: (§2)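 Plants grown in peat/vermiculite medium were sprayed postemergence at 2–18 cm height (1- to 4-leaf stage). After 13–15 days in the greenhouse, response was rated visually against untreated controls on a 0–100 scale (0 no effect, 100 complete control).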
# [7] = test system: chickweed (Stellaria media); assay: Test B postemergence plant response; settings: for Chickweed plant response rating: 250 g ai/ha, scale 0 to 100
# In short: as §2
# [8] = test system: windgrass (Apera spica-venti); assay: Test B postemergence plant response
# In short: as §2
# [9] = test system: winter barley (Hordeum vulgare); assay: Test B postemergence plant response; settings: for Barley plant response rating: 250 g ai/ha, scale 0 to 100
# In short: as §2
# [10] = test system: barnyardgrass (Echinochloa crus-galli); assay: Test B flooded paddy test; settings: for Plant response rating, Flood, Barnyardgrass: 250 g ai/ha, flooded paddy test, visual rating on 0 to 100 scale (0 no effect, 100 complete control) after 13 to 15 days; for Plant response rating, Barnyardgrass: Flood (flooded paddy test), 13 to 15 days
# In short: (§3)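 Ratings are visual, 0–100 (100 = complete control), taken versus untreated controls 13 to 15 days after treatment in the greenhouse. Compound went straight into paddy water held 3 cm above soil, applied to 2-leaf-stage plants of four species.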
# [11] = test system: ducksalad (Heteranthera limosa); assay: Test B flooded paddy test; settings: for Plant response rating, Flood, Ducksalad: 250 g ai/ha, flooded paddy test, visual rating on 0 to 100 scale (0 no effect, 100 complete control) after 13 to 15 days; for Plant response rating, Ducksalad: Flood (flooded paddy test), 13 to 15 days
# In short: as §3
# [12] = test system: rice (Oryza sativa); assay: Test B flooded paddy test; settings: for Plant response rating, Flood, Rice: 250 g ai/ha, flooded paddy test, visual rating on 0 to 100 scale (0 no effect, 100 complete control) after 13 to 15 days; for Plant response rating, Rice: Flood (flooded paddy test), 13 to 15 days
# In short: as §3
# [13] = test system: umbrella sedge (Cyperus difformis); assay: Test B flooded paddy test; settings: for Plant response rating, Flood, Sedge, Umbrella: 250 g ai/ha, flooded paddy test, visual rating on 0 to 100 scale (0 no effect, 100 complete control) after 13 to 15 days; for Plant response rating, Sedge, Umbrella: Flood (flooded paddy test), 13 to 15 days
# In short: as §3
# [14] = test system: goosegrass (Eleusine indica); assay: Test B pre-/postemergence plant response; settings: Preemergence, 62 g ai/ha; scale 0 to 100, 0 no effect, 100 complete control
# [15] = 250 g ai/ha, Preemergence, 0 to 100 scale
# [16] = Postemergence, 31 g ai/ha, scale 0 to 100 (0 no effect, 100 complete control)
# [17] = Postemergence, 62 g ai/ha, scale 0 (no effect) to 100 (complete control), 13 to 15 days
# [18] = Postemergence, 125 g ai/ha, scale 0 to 100 (0 no effect, 100 complete control), 13 to 15 days
# [19] = Postemergence, 250 g ai/ha, scale 0 to 100
# [20] = Preemergence, 31 g ai/ha, scale 0 to 100 (0 no effect, 100 complete control)
# [21] = Preemergence, 62 g ai/ha, scale 0 to 100, 0 no effect, 100 complete control
# [22] = Preemergence, 125 g ai/ha, 0 to 100 scale
# [23] = 31 g ai/ha, scale 0 to 100 (0 no effect, 100 complete control)
# [24] = 62 g ai/ha, scale 0 to 100, 0 no effect, 100 complete control
# [25] = Postemergence, 125 g ai/ha, visual rating after 13 to 15 days, scale 0 (no effect) to 100 (complete control)
# [26] = 62 g ai/ha, scale 0 to 100, 0 is no effect, 100 is complete control
# [27] = 31 g ai/ha, postemergence, scale 0 to 100, 0 is no effect, 100 is complete control
# [28] = 31 g ai/ha, scale of 0 to 100 where 0 is no effect and 100 is complete control
# [29] = 62 g ai/ha, scale of 0 to 100 where 0 is no effect and 100 is complete control
# [30] = 125 g ai/ha, scale 0 to 100, 0 is no effect, 100 is complete control
smiles,measurement,setting,value
Cc1cccc(-n2c(-c3ccccc3)ncc(C(=O)C3=C(O)CCCC3=O)c2=O)c1C [Compound 27],"Plant response rating, Bermudagrass",[1]; [15],100
same,"Plant response rating, Bermudagrass",[1]; [16],70
same,"Plant response rating, Bermudagrass",[1]; [17],90
same,"Plant response rating, Bermudagrass",[1]; [18],100
same,Bermudagrass plant response rating,[1]; [19],100
same,"Plant response rating, Bermudagrass",[1]; [20],70
same,"Plant response rating, Bermudagrass",[1]; [21],98
same,Bermudagrass plant response rating,[1]; [22],100
same,"Plant response rating, Galium","[2]; 250 g ai/ha, 0 to 100 scale",95
same,"Plant response rating, Galium",[2]; [23],0
same,"Plant response rating, Galium",[2]; [24],50
same,Galium plant response rating,[2]; 0 to 100 scale,85
same,"Plant response rating, Morningglory",[3]; [15],100
same,"Plant response rating, Morningglory",[3]; [16],50
same,"Plant response rating, Morningglory",[3]; [17],80
same,"Plant response rating, Morningglory",[3]; [25],80
same,Morningglory plant response rating,[3]; [19],90
same,"Plant response rating, Morningglory",[3]; [20],100
same,"Plant response rating, Morningglory",[3]; [21],100
same,Morningglory plant response rating,[3]; [22],100
same,"Plant response rating, Nightshade","[4]; 250 g ai/ha, 0 to 100 scale",100
same,"Plant response rating, Nightshade",[4]; [23],80
same,"Plant response rating, Nightshade",[4]; [24],98
same,Nightshade plant response rating,[4]; 0 to 100 scale,100
same,"Plant response rating, Sunflower","[5]; 250 g ai/ha, 0 to 100 scale",100
same,"Plant response rating, Sunflower",[5]; [23],75
same,"Plant response rating, Sunflower",[5]; [24],75
same,Sunflower plant response rating,[5]; 0 to 100 scale,90
same,"Plant response rating, Canarygrass",[6]; [16],10
same,"Plant response rating, Canarygrass",[6]; [17],10
same,"Plant response rating, Canarygrass",[6]; [25],30
same,Canarygrass plant response rating,[6]; Postemergence,50
same,"Plant response rating, Chickweed",[7]; [16],40
same,"Plant response rating, Chickweed",[7]; [17],45
same,"Plant response rating, Chickweed",[7]; [25],50
same,Chickweed plant response rating,[7]; Postemergence,80
same,"Plant response rating, Windgrass",[8]; [16],10
same,"Plant response rating, Windgrass",[8]; [17],10
same,"Plant response rating, Windgrass",[8]; [25],50
same,Windgrass plant response rating,[8]; [19],60
same,"Plant response rating, Barley",[9]; [16],0
same,"Plant response rating, Barley",[9]; [17],0
same,"Plant response rating, Barley",[9]; [18],10
same,Barley plant response rating,[9]; Postemergence,20
same,"Plant response rating, Flood, Barnyardgrass",[10],40
same,"Plant response rating, Barnyardgrass",[10]; [26],0
same,"Plant response rating, Flood, Ducksalad",[11],85
same,"Plant response rating, Ducksalad",[11]; [26],75
same,"Plant response rating, Flood, Rice",[12],0
same,"Plant response rating, Rice",[12]; [26],0
same,"Plant response rating, Flood, Sedge, Umbrella",[13],85
same,"Plant response rating, Sedge, Umbrella",[13]; [26],75
same,"Plant response rating, Goosegrass",[14],98
CCn1c(-c2ccccc2)ncc(C(=O)C2=C(O)CCCC2=O)c1=O [Compound 49],"Plant response rating, Bermudagrass",[1]; [27],75
same,"Plant response rating, Bermudagrass",[1]; [15],100
same,"Plant response rating, Bermudagrass",[1]; [17],85
same,"Plant response rating, Bermudagrass",[1]; [25],95
same,Bermudagrass plant response rating,[1]; [19],98
same,Bermudagrass plant response rating,[1]; [22],98
same,"Plant response rating, Galium","[2]; 250 g ai/ha, 0 to 100 scale",95
same,"Plant response rating, Galium",[2]; [23],0
same,"Plant response rating, Galium",[2]; [24],80
same,Galium plant response rating,[2]; 0 to 100 scale,90
same,"Plant response rating, Morningglory",[3]; [27],65
same,"Plant response rating, Morningglory",[3]; [15],85
same,"Plant response rating, Morningglory",[3]; [17],80
same,"Plant response rating, Morningglory",[3]; [25],80
same,"Plant response rating, Morningglory",[3]; [20],45
same,"Plant response rating, Morningglory",[3]; [21],80
same,Morningglory plant response rating,[3]; [22],80
same,"Plant response rating, Nightshade","[4]; 250 g ai/ha, 0 to 100 scale",98
same,"Plant response rating, Nightshade",[4]; [23],98
same,"Plant response rating, Nightshade",[4]; [24],98
same,Nightshade plant response rating,[4]; 0 to 100 scale,98
same,"Plant response rating, Sunflower","[5]; 250 g ai/ha, 0 to 100 scale",75
same,"Plant response rating, Sunflower",[5]; [23],60
same,Sunflower plant response rating,[5]; 0 to 100 scale,75
same,"Plant response rating, Canarygrass",[6]; [27],0
same,"Plant response rating, Canarygrass",[6]; [17],0
same,"Plant response rating, Canarygrass",[6]; [25],0
same,Canarygrass plant response rating,[6]; Postemergence,0
same,"Plant response rating, Chickweed",[7]; [27],75
same,"Plant response rating, Chickweed",[7]; [17],75
same,"Plant response rating, Chickweed",[7]; [25],80
same,Chickweed plant response rating,[7]; Postemergence,90
same,"Plant response rating, Windgrass",[8]; [27],0
same,"Plant response rating, Windgrass",[8]; [17],0
same,"Plant response rating, Windgrass",[8]; [25],5
same,"Plant response rating, Barley",[9]; [27],0
same,"Plant response rating, Barley",[9]; [17],0
same,"Plant response rating, Barley",[9]; [25],0
same,Barley plant response rating,[9]; Postemergence,0
same,"Plant response rating, Flood, Barnyardgrass",[10],0
same,"Plant response rating, Barnyardgrass",[10]; [28],0
same,"Plant response rating, Barnyardgrass",[10]; [29],0
same,"Plant response rating, Barnyardgrass",[10]; [30],0
same,"Plant response rating, Flood, Ducksalad",[11],70
same,"Plant response rating, Ducksalad",[11]; [28],0
same,"Plant response rating, Ducksalad",[11]; [29],0
same,"Plant response rating, Ducksalad",[11]; [30],40
same,"Plant response rating, Flood, Rice",[12],15
same,"Plant response rating, Rice",[12]; [28],0
same,"Plant response rating, Rice",[12]; [29],0
same,"Plant response rating, Rice",[12]; [30],10
same,"Plant response rating, Flood, Sedge, Umbrella",[13],85
same,"Plant response rating, Sedge, Umbrella",[13]; [28],0
same,"Plant response rating, Sedge, Umbrella",[13]; [29],0
same,"Plant response rating, Sedge, Umbrella",[13]; [30],0
same,"Plant response rating, Goosegrass",[14],95
